Measured values: the supplement of paper PMC10331698
± gives the standard deviation of the averaged measurements.

How the values were obtained:
Assay in all cases: level (log10 ratio to DMSO vehicle control); higher = higher biomarker level / cell amount than vehicle control
Details in all cases: in DMSO
[1] = compound: CC(C)(C)C(=O)CC(=O)C(F)(F)C(F)(F)C(F)(F)F [(Heptafluorobutanoyl)pivaloylmethane]
Protocol: (§1)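 BioMAP Diversity Plus panel of 12 human primary cell co-culture systems (3C, 4H, LPS, SAg, BT, BF4T, BE3C, CASM3C, HDF3CGF, KF3CT, MyoF, Mphg). Compounds were added 1 h before stimulation and left for 24 h (MyoF 48 h; BT 72 h for soluble read-outs or 6 d for IgG). Biomarkers were read by ELISA, cytotoxicity by SRB, PBMC viability and proliferation by Alamar Blue. Each well value was divided by the mean of 8 DMSO control wells on the same plate and log10 transformed; duplicate blinded samples were tested at 4 concentrations.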

Azathioprine = compound: Cn1cnc([N+](=O)[O-])c1Sc1ncnc2[nH]cnc12 [Azathioprine]
Protocol: as §1

[2] = compound: O=C(O)C(F)(F)C(F)(F)C(F)(F)C(F)(F)C(F)(F)C(F)(F)C(F)(F)C(F)(F)Cl [9-Chloro-perfluorononanoic acid]
Protocol: as §1

[3] = compound: O=C(O)CCC(F)(F)C(F)(F)C(F)(F)F [3:3 Fluorotelomer carboxylic acid]
Protocol: as §1

[4] = compound: O=P(O)(O)CCC(F)(F)C(F)(F)C(F)(F)C(F)(F)C(F)(F)C(F)(F)C(F)(F)C(F)(F)F [((Perfluorooctyl)ethyl)phosphonic acid]
Protocol: as §1

[5] = compound: O=S(=O)(O)C(F)(F)C(F)(F)C(F)(F)C(F)(F)C(F)(F)C(F)(F)C(F)(F)C(F)(F)F [Perfluorooctanesulfonic acid]
Protocol: as §1

Test System	level (log10) ([1]; 6700 nM)	level (log10) ([1]; 20000 nM)	level (log10) ([1]; 60000 nM)	level (log10) (Azathioprine; 1400 nM)	level (log10) (Azathioprine; 4200 nM)	level (log10) (Azathioprine; 13000 nM)	level (log10) (Azathioprine; 38000 nM)	level (log10) ([2]; 6700 nM)	level (log10) ([2]; 20000 nM)	level (log10) ([3]; 6700 nM)	level (log10) ([3]; 20000 nM)	level (log10) ([3]; 60000 nM)	level (log10) ([4]; 6700 nM)	level (log10) ([4]; 20000 nM)	level (log10) ([4]; 60000 nM)	level (log10) ([5]; 6700 nM)	level (log10) ([5]; 20000 nM)	level (log10) ([5]; 60000 nM)
BE3C:CXCL9/MIG	-0.0045 ± 0.0035	-0.0025 ± 0.0064	-0.0005 ± 0.0064	-0.006 ± 0.0085	0.0005 ± 0.0035	-0.0025 ± 0.013	-0.0015 ± 0.013	-0.0015 ± 0.00071	-0.047	0.006 ± 0.0099	0.0055 ± 0.00071	0.01 ± 0.0014	0.0165 ± 0.0064	0.011 ± 0.0057	0.013 ± 0.021	0.0105 ± 0.0078	-0.011 ± 0.021	-0.513 ± 0.32
BE3C:CXCL10/IP-10	0.006 ± 0.024	-0.0025 ± 0.022	-0.0055 ± 0.019	0.0015 ± 0.028	0.0115 ± 0.028	0.001 ± 0.024	0.001 ± 0.0085	-0.0545 ± 0.015	-0.462 ± 0.011	-0.0015 ± 0.005	0.0045 ± 0.015	0.013 ± 0.0099	-0.0055 ± 0.0064	-0.001 ± 0.0099	-0.0045 ± 0.0078	-0.0365 ± 0.013	-0.478 ± 0.054	-0.7725 ± 0.0035
BE3C:CXCL11/I-TAC	-0.0005 ± 0.04	0.01 ± 0.037	0.024 ± 0.028	-0.0205 ± 0.035	0.008 ± 0.0028	0.01 ± 0.031	0.025 ± 0.051	0.0515 ± 0.005	-0.161 ± 0.032	-0.004 ± 0.021	0.0045 ± 0.005	0.0005 ± 0.0035	-0.0285 ± 0.011	-0.0225 ± 0.0064	-0.0205 ± 0.0035	-0.0085 ± 0.00071	-0.0735 ± 0.028	-0.555 ± 0.15
BE3C:EGFR	0.0095 ± 0.016	-0.0055 ± 0.023	-0.0175 ± 0.00071	0.007 ± 0.02	-0.0125 ± 0.0035	-0.0055 ± 0.005	-0.0095 ± 0.019	-0.004 ± 0.0014	-0.101 ± 0.015	0.006 ± 0.0057	0.0105 ± 0.013	-0.0015 ± 0.005	-0.025 ± 0.014	-0.0355 ± 0.025	-0.0345 ± 0.033	0.0025 ± 0.023	-0.125 ± 0.059	-0.159 ± 0.12
BE3C:HLA-DR	0.0115 ± 0.0021	0.01 ± 0.0042	-0.017 ± 0.0057	-0.0075 ± 0.021	-0.0095 ± 0.0021	-0.0165 ± 0.021	-0.032 ± 0.044	-0.0575 ± 0.025	-0.445 ± 0.052	-0.0345 ± 0.035	-0.018 ± 0.011	-0.0225 ± 0.005	-0.025 ± 0.0099	-0.031 ± 0.013	-0.0075 ± 0.013	-0.0155 ± 0.016	-0.189 ± 0.014	-0.409 ± 0.1
BE3C:IL-1alpha	-0.0015 ± 0.021	-0.0035 ± 0.0035	-0.003 ± 0.021	-0.012 ± 0.0099	0.0045 ± 0.011	-0.019 ± 0.0085	-0.031 ± 0.051	0.023 ± 0.017	-0.0765 ± 0.026	0.0135 ± 0.037	0.0255 ± 0.039	0.0155 ± 0.035	-0.017 ± 0.016	-0.019 ± 0.025	0.0085 ± 0.056	0.0315 ± 0.023	0.0055 ± 0.016	-0.237 ± 0.2
BF4T:CCL2/MCP-1	-0.0085 ± 0.0064	0.004 ± 0.038	-0.223 ± 0.34	0.0185 ± 0.015	0.0025 ± 0.019	-0.006 ± 0.011	-0.021 ± 0.0099	-0.034 ± 0.028	-0.0785 ± 0.044	-0.0025 ± 0.0021	-0.018 ± 0.0014	-0.01 ± 0.041	0.0125 ± 0.019	0.0295 ± 0.026	0.061 ± 0.02	0.0145 ± 0.005	0.0095 ± 0.035	-0.0565 ± 0.21
BF4T:CCL26/Eotaxin-3	0.009 ± 0.048	-0.0205 ± 0.032	-0.0065 ± 0.0064	0.0215 ± 0.059	0.025 ± 0.058	0.007 ± 0.014	-0.0025 ± 0.032	-0.144 ± 0.016	-0.27 ± 0.014	-0.015 ± 0.018	-0.0095 ± 0.026	0.009 ± 0.018	-0.084 ± 0.0099	-0.157 ± 0.018	-0.14 ± 0.056	-0.0595 ± 0.026	-0.155 ± 0.0085	-0.192 ± 0.097
BF4T:CD54/ICAM-1	-0.006 ± 0.0014	-0.0145 ± 0.005	-0.0155 ± 0.015	0.007 ± 0.02	-0.0025 ± 0.013	-0.012 ± 0.0071	-0.0155 ± 0.022	-0.0085 ± 0.0021	-0.0355 ± 0.0064	-0.0075 ± 0.0092	0.007	-0.008 ± 0.0071	0.0035 ± 0.029	0.001 ± 0.031	-0.0035 ± 0.046	-0.0065 ± 0.019	-0.0115 ± 0.028	-0.018 ± 0.014
BF4T:CD90	-0.0065 ± 0.012	-0.0015 ± 0.0035	0.004 ± 0.0028	-0.0025 ± 0.00071	-0.0075 ± 0.0035	-0.0305 ± 0.023	-0.024 ± 0.018	-0.034 ± 0.013	-0.0285 ± 0.005	-0.0025 ± 0.005	-0.009 ± 0.0014	-0.0085 ± 0.013	0.001 ± 0.0099	0.0035 ± 0.005	0.014 ± 0.021	-0.0015 ± 0.011	0.005 ± 0.0014	0.0135 ± 0.0021
BF4T:CD106/VCAM-1	0.0075 ± 0.015	-0.002 ± 0.0042	-0.005	-0.0185 ± 0.015	-0.026 ± 0.025	-0.038	-0.139 ± 0.016	-0.0485 ± 0.005	-0.141 ± 0.011	-0.012 ± 0.041	0.0075 ± 0.0078	0.0205 ± 0.018	-0.009 ± 0.018	0.0185 ± 0.019	0.0205 ± 0.052	-0.0065 ± 0.0021	-0.0155 ± 0.012	-0.016 ± 0.03
BF4T:CXCL8/IL-8	-0.0045 ± 0.035	-0.002 ± 0.0085	0.0175 ± 0.029	-0.013 ± 0.011	-0.0325 ± 0.0064	-0.0455 ± 0.016	-0.0405 ± 0.016	0.112 ± 0.042	0.0875 ± 0.015	-0.0125 ± 0.025	-0.0155 ± 0.052	-0.019 ± 0.031	0.0075 ± 0.012	0.026 ± 0.017	0.0325 ± 0.0092	-0.0155 ± 0.00071	-0.032 ± 0.014	-0.0185 ± 0.059
BF4T:IL-1alpha	0.007 ± 0.011	-0.0225 ± 0.011	-0.028 ± 0.017	-0.0055 ± 0.019	-0.0015 ± 0.0092	-0.009 ± 0.0057	0.0005 ± 0.033	0.0205 ± 0.0035	-0.023 ± 0.011	-0.0035 ± 0.019	-0.009 ± 0.02	0.003	-0.0165 ± 0.015	-0.001 ± 0.0028	0.015 ± 0.02	0.01 ± 0.011	0.002 ± 0.0014	-0.002 ± 0.0099
BF4T:Keratin 8/18	-0.007 ± 0.061	-0.024 ± 0.041	0.0145 ± 0.0035	0.0075 ± 0.026	-0.0055 ± 0.0035	-0.0115 ± 0.013	0.0115 ± 0.026	-0.004 ± 0.0057	-0.0105 ± 0.0035	0.004 ± 0.024	-0.006 ± 0.0042	0.0135 ± 0.015	-0.016 ± 0.017	-0.0195 ± 0.005	-0.0155 ± 0.042	-0.009 ± 0.0014	-0.0015 ± 0.0021	0.0135 ± 0.021
BF4T:MMP-1	0.0005 ± 0.0035	-0.0145 ± 0.0092	-0.011 ± 0.02	0 ± 0.014	-0.001 ± 0.0042	-0.003 ± 0.0042	0.019 ± 0.025	-0.0115 ± 0.0078	0.0245 ± 0.0064	0.0005 ± 0.0064	-0.0065 ± 0.011	-0.005 ± 0.027	-0.005 ± 0.0014	0.0075 ± 0.022	0.007 ± 0.05	0.02 ± 0.0014	0.029 ± 0.013	0.039 ± 0.047
BF4T:MMP-3	-0.031 ± 0.02	-0.0345 ± 0.029	-0.0285 ± 0.057	0.01 ± 0.02	-0.02 ± 0.018	-0.015 ± 0.0057	0.0235 ± 0.052	0.0535 ± 0.023	0.118 ± 0.035	0.0285 ± 0.042	0.0005 ± 0.033	0.018 ± 0.023	-0.013 ± 0.02	0.009 ± 0.011	0.014 ± 0.079	0.012 ± 0.035	0.0625 ± 0.012	0.059 ± 0.089
